The target of this assay is T1, HCV1b NS5B polymerase delta 21 (Hepatitis C virus genotype 1b, UniProt P26663).
T1 construct: purified HCV1b NS5B polymerase delta 21
Description: RNA-Dependent RNA HCV NS5B (Polymerase) Assay and IC50 Determination. The assay is classed as biochemical. Summed up:
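Purified NS5B Δ21 (0.6 μg) with polyA:U16 template, 10 μM UTP plus α-32P UTP in Tris-HCl pH 7.5, 5 mM MgCl2, 0.5% Triton X-100, 60 min at 23°C with varied compound concentrations. Radiolabelled RNA captured on filters, quantified by phosphorimaging; IC50 from triplicate assays.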

Structures can show the parent of a compound that is named as a salt.

T1 sequence (P26663 2420-2989): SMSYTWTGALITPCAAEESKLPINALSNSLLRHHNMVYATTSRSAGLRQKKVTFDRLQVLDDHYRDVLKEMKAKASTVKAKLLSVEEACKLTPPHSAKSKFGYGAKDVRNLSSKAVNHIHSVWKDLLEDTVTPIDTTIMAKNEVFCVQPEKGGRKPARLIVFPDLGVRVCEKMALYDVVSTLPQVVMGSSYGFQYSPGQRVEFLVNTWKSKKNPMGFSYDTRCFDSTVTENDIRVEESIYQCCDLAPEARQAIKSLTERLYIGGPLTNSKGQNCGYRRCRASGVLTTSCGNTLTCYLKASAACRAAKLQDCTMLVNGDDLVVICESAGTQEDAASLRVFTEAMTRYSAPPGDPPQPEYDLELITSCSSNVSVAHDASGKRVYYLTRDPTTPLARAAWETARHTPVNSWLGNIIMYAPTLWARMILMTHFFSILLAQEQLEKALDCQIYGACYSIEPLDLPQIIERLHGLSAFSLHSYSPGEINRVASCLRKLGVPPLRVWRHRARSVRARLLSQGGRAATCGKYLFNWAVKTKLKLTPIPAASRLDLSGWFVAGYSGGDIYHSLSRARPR

Consider `CC1CCC(C2=C(c3cc(-c4ccccc4)sc3C(=O)O)CCN(CCCc3ccccc3)C2)CC1` (stereo not drawn) [Example 110, 3-[5-(4-Methyl-cyclohexyl)-1-(4-phenyl-propyl)-1,2,3,6-tetrahydro-pyridin-4-yl]-5-phenyl-thiophene-2-carboxylic acid], for which the concentration for half-maximal inhibition (IC50) – broadly, the concentration needed to halve the response being measured – is over 10 µM. `CC1CCC(C2=C(c3cc(C#CC(C)(C)C)sc3C(=O)O)CNCC2)CC1` (stereo not drawn) [Example 111, 5-(3,3-Dimethyl-but-1-ynyl)-3-[4-(4-methyl-cyclohexyl)-1,2,5,6-tetrahydro-pyridin-3-yl]-thiophene-2-carboxylic acid] returned an IC50 of under 3 µM. The result for `CC1CCC(C2=C(c3cc(C#CC(C)(C)C)sc3C(=O)O)CN(C)CC2)CC1` (stereo not drawn) [Example 112, 5-(3,3-Dimethyl-but-1-ynyl)-3-[1-methyl-4-(4-methyl-cyclohexyl)-1,2,5,6-tetrahydro-pyridin-3-yl]-thiophene-2-carboxylic acid] reads under 3 µM; that for `CC1CCC(C2=C(c3cc(C#CC(C)(C)C)sc3C(=O)O)CN(CCO)CC2)CC1` (stereo not drawn) [Example 113, 5-(3,3-Dimethyl-but-1-ynyl)-3-[1-(2-hydroxy-ethyl)-4-(4-methyl-cyclohexyl)-1,2,5,6-tetrahydro-pyridin-3-yl]-thiophene-2-carboxylic acid], under 3 µM; that for `CC1CCC(C2=C(c3cc(C#CC(C)(C)C)sc3C(=O)O)CN(CCCO)CC2)CC1` (stereo not drawn) [Example 114, 5-(3,3-Dimethyl-but-1-ynyl)-3-[1-(3-hydroxy-propyl)-4-(4-methyl-cyclohexyl)-1,2,5,6-tetrahydro-pyridin-3-yl]-thiophene-2-carboxylic acid], under 3 µM. The result for `CC1CCC(C2=C(c3cc(C#CC(C)(C)C)sc3C(=O)O)CN(CC3CCOC3)CC2)CC1` (stereo not drawn) [Example 117, 5-(3,3-Dimethyl-but-1-ynyl)-3-[4-(4-methyl-cyclohexyl)-1-(tetrahydro-furan-3-ylmethyl)-1,2,5,6-tetrahydro-pyridin-3-yl]-thiophene-2-carboxylic acid] reads under 3 µM; that for `CC1CCC(C2=C(c3cc(C#CC(C)(C)C)sc3C(=O)O)CN(CCF)CC2)CC1` (stereo not drawn) [Example 124, 5-(3,3-Dimethyl-but-1-ynyl)-3-[1-(2-fluoro-ethyl)-4-(4-methyl-cyclohexyl)-1,2,5,6-tetrahydro-pyridin-3-yl]-thiophene-2-carboxylic acid], under 3 µM; that for `CC1CCC(C2=C(c3cc(C#CC(C)(C)C)sc3C(=O)O)CCN(Cc3ccccn3)C2)CC1` (stereo not drawn) [Example 127, 5-(3,3-Dimethyl-but-1-ynyl)-3-[5-(4-methyl-cyclohexyl)-1-pyridin-2-ylmethyl-1,2,3,6-tetrahydro-pyridin-4-yl]-thiophene-2-carboxylic acid], under 3 µM. The same measure for `Cc1cc(C)n2nc(CN3CCC(c4cc(C#CC(C)(C)C)sc4C(=O)O)=C(C4CCC(C)CC4)C3)nc2n1` (stereo not drawn) [Example 128, 5-(3,3-Dimethyl-but-1-ynyl)-3-[1-(5,7-dimethyl-[1,2,4]triazolo[1,5-a]pyrimidin-2-ylmethyl)-5-(4-methyl-cyclohexyl)-1,2,3,6-tetrahydro-pyridin-4-yl]-thiophene-2-carboxylic acid]: under 3 µM; for `CC1CCC(C2=C(c3cc(-c4ccc(C#Cc5cscn5)cc4)sc3C(=O)O)CCN(C)C2)CC1` (stereo not drawn) [Example 129, 3-[1-Methyl-5-(4-methyl-cyclohexyl)-1,2,3,6-tetrahydro-pyridin-4-yl]-5-(4-thiazol-4-ylethynyl-phenyl)-thiophene-2-carboxylic acid, hydrochloride salt]: under 3 µM. Molecule `CC1CCC(C2=C(c3cc(-c4ccc(NC(=O)c5cscn5)cc4)sc3C(=O)O)CCN(Cc3ccccn3)C2)CC1` (stereo not drawn) [Example 131, 3-[5-(4-Methyl-cyclohexyl)-1-pyridin-2-ylmethyl-1,2,3,6-tetrahydro-pyridin-4-yl]-5-{4-[(thiazole-4-carbonyl)-amino]-phenyl}-thiophene-2-carboxylic acid] had an IC50 of under 3 µM. Regarding `CC1CCC(C2=C(c3cc(-c4ccc(-c5cc6nccc(N)n6n5)cc4)sc3C(=O)O)CCN(C)C2)CC1` (stereo not drawn) [Example 132, 5-[4-(7-Amino-pyrazolo[1,5-a]pyrimidin-2-yl)-phenyl]-3-[1-methyl-5-(4-methyl-cyclohexyl)-1,2,3,6-tetrahydro-pyridin-4-yl]-thiophene-2-carboxylic acid, hydrochloride salt], the concentration for half-maximal inhibition (IC50) was under 3 µM. `CC1CCC(C2=C(c3cc(C#CC(C)(C)C)sc3C(=O)O)CCN(Cc3ccncc3)C2)CC1` (stereo not drawn) [Example 133, 5-(3,3-Dimethyl-but-1-ynyl)-3-[5-(4-methyl-cyclohexyl)-1-pyridin-4-ylmethyl-1,2,3,6-tetrahydro-pyridin-4-yl]-thiophene-2-carboxylic acid] yielded an IC50 of 3 to 10 µM. `CC1CCC(C2=C(c3cc(C#CC4CC4)sc3C(=O)O)CCN(Cc3ccccn3)C2)CC1` (stereo not drawn) [Example 134, 5-Cyclopropylethynyl-3-[5-(4-methyl-cyclohexyl)-1-pyridin-2-ylmethyl-1,2,3,6-tetrahydro-pyridin-4-yl]-thiophene-2-carboxylic acid]: the IC50 is under 3 µM. Molecule `CC1CCC(C2=C(c3cc(-c4ccc(C5=CC6N=CC=CC6O5)cc4)sc3C(=O)O)CCN(C)C2)CC1` (stereo not drawn) [Example 135, 5-[4-(3a,7a-Dihydro-furo[3,2-b]pyridin-2-yl)-phenyl]-3-[1-methyl-5-(4-methyl-cyclohexyl)-1,2,3,6-tetrahydro-pyridin-4-yl]-thiophene-2-carboxylic acid] came in with a 50% inhibitory concentration (IC50) of under 3 µM. `CC1CCC(C2=C(c3cc(C#CC(C)(C)C)sc3C(=O)O)CCN(Cc3c(C(F)(F)F)nn(C)c3Cl)C2)CC1` (stereo not drawn) [Example 136, 3-[1-(5-Chloro-1-methyl-3-trifluoromethyl-1H-pyrazol-4-ylmethyl)-5-(4-methyl-cyclohexyl)-1,2,3,6-tetrahydro-pyridin-4-yl]-5-(3,3-dimethyl-but-1-ynyl)-thiophene-2-carboxylic acid] gave an IC50 of over 10 µM. The same measure for `COCCN1CCC(C2CCC(C)CC2)=C(c2cc(C#CC(C)(C)C)sc2C(=O)O)C1` (stereo not drawn) [Example 137, 5-(3,3-Dimethyl-but-1-ynyl)-3-[1-(2-methoxy-ethyl)-4-(4-methyl-cyclohexyl)-1,2,5,6-tetrahydro-pyridin-3-yl]-thiophene-2-carboxylic acid]: over 10 µM; for `CC1CCC(C2=C(c3cc(C#CC4CC4)sc3C(=O)O)CCN(CCO)C2)CC1` (stereo not drawn) [Example 138, 5-Cyclopropylethynyl-3-[1-(2-hydroxy-ethyl)-5-(4-methyl-cyclohexyl)-1,2,3,6-tetrahydro-pyridin-4-yl]-thiophene-2-carboxylic acid]: under 3 µM.

In turn, `CC1CCC(C2=C(c3cc(-c4ccc(-c5nc6cccnc6n5C)cc4)sc3C(=O)O)CCN(C)C2)CC1` (stereo not drawn) [Example 139, 5-[4-(3-Methyl-3H-imidazo[4,5-b]pyridin-2-yl)-phenyl]-3-[1-methyl-5-(4-methyl-cyclohexyl)-1,2,3,6-tetrahydro-pyridin-4-yl]-thiophene-2-carboxylic acid] came in with an IC50 of over 10 µM. The result for `CC1CCC(C2=C(c3cc(-c4ccc(-c5nc6cccnc6[nH]5)cc4)sc3C(=O)O)CCN(C)C2)CC1` (stereo not drawn) [Example 140, 5-[4-(3H-Imidazol-[4,5-b]pyridin-2-yl)-phenyl]-3-[1-methyl-5-(4-methyl-cyclohexyl)-1,2,3,6-tetrahydro-pyridin-4-yl]-thiophene-2-carboxylic acid] reads 3 to 10 µM; that for `CC1CCC(C2=C(c3cc(-c4ccc(-c5cc6ncccn6n5)cc4)sc3C(=O)O)CCN(Cc3ccccn3)C2)CC1` (stereo not drawn) [Example 141, 3-[5-(4-Methyl-cyclohexyl)-1-pyridin-2-ylmethyl-1,2,3,6-tetrahydro-pyridin-4-yl]-5-(4-pyrazolo[1,5-a]pyrimidin-2-yl-phenyl)-thiophene-2-carboxylic acid], 3 to 10 µM. The result for `Cc1nn(C)cc1CN1CCC(c2cc(C#CC(C)(C)C)sc2C(=O)O)=C(C2CCC(C)CC2)C1` (stereo not drawn) [Example 142, 5-(3,3-Dimethyl-but-1-ynyl)-3-[1-(1,3-dimethyl-1H-pyrazol-4-ylmethyl)-5-(4-methyl-cyclohexyl)-1,2,3,6-tetrahydro-pyridin-4-yl]-thiophene-2-carboxylic acid] reads under 3 µM; that for `CC1CCC(C2=C(c3cc(-c4ccccc4)sc3C(=O)O)CCN(Cc3ccc4ccccc4n3)C2)CC1` (stereo not drawn) [Example 143, 3-[5-(4-Methyl-cyclohexyl)-1-quinolin-2-ylmethyl-1,2,3,6-tetrahydro-pyridin-4-yl]-5-phenyl-thiophene-2-carboxylic acid], over 10 µM.

Regarding `CC1CCC(C2=C(c3cc(-c4ccccc4)sc3C(=O)O)CCN(Cc3ccnc(Br)c3)C2)CC1` (stereo not drawn) [Example 144, 3-[1-(2-Bromo-pyridin-4-ylmethyl)-5-(4-methyl-cyclohexyl)-1,2,3,6-tetrahydro-pyridin-4-yl]-5-phenyl-thiophene-2-carboxylic acid], the IC50 fell in the range of 3 to 10 µM. The molecule `CC1CCC(C2=C(c3cc(-c4ccccc4)sc3C(=O)O)CCN(Cc3ccnc(-c4cccs4)c3)C2)CC1` (stereo not drawn) [Example 145, 3-[5-(4-Methyl-cyclohexyl)-1-(2-thiophen-2-yl-pyridin-4-ylmethyl)-1,2,3,6-tetrahydro-pyridin-4-yl]-5-phenyl-thiophene-2-carboxylic acid] registered an IC50 of over 10 µM. The result for `CC1CCC(C2=C(c3cc(-c4ccccc4)sc3C(=O)O)CCN(Cc3c(Cl)cncc3Cl)C2)CC1` (stereo not drawn) [Example 146, 3-[1-(3,5-Dichloro-pyridin-4-ylmethyl)-5-(4-methyl-cyclohexyl)-1,2,3,6-tetrahydro-pyridin-4-yl]-5-phenyl-thiophene-2-carboxylic acid] reads over 10 µM; that for `CC1CCC(C2=C(c3cc(-c4ccccc4)sc3C(=O)O)CCN(Cc3ccnc(-c4ccc(F)cc4)c3)C2)CC1` (stereo not drawn) [Example 147, 3-[1-[2-(4-Fluoro-phenyl)-pyridin-4-ylmethyl]-5-(4-methyl-cyclohexyl)-1,2,3,6-tetrahydro-pyridin-4-yl]-5-phenyl-thiophene-2-carboxylic acid], over 10 µM.

Values taken from patent US8771665B2 (Cocrystal Discovery, Inc., priority 2010, dated 2014).
